Where “and” joins values, the source holds several entries; their conditions need not be identical. Equal entries are not always repeated. Inconclusive results and toxic doses are left out. The calls were made as follows: active = survival T/C of 150% or more; inactive = T/C below 125% in these data.
Test system: BDF1 mice, P388 leukemia ip, median survival T/C
Assay: NCI In Vivo Anticancer Drug Screen. Data for tumor model P388 Leukemia (intraperitoneal) in B6D2F1 (BDF1) mice
Conditions: endpoint: median survival time, higher = longer survival
Summary of the method: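 Each value expresses how treatment altered survival: treated-mouse outcome over vehicle-mouse outcome, both groups bearing the transplanted tumour.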

[1] = dose: 100.0 mg/kg/injection, schedule: Q01DX009 (ip), vehicle: saline with Tween-80
[2] = dose: 100.0 mg/kg/injection, schedule: Q04DX003 (ip), vehicle: saline with Tween-80
[3] = dose: 200.0 mg/kg/injection, schedule: Q04DX003 (ip), vehicle: saline with Tween-80
[4] = dose: 400.0 mg/kg/injection, schedule: Q04DX003 (ip), vehicle: saline with Tween-80
[5] = dose: 50.0 mg/kg/injection, schedule: Q01DX009 (ip), vehicle: Klucel (hydroxypropylcellulose) (HPC)
[6] = dose: 100.0 mg/kg/injection, schedule: Q01DX009 (ip), vehicle: Klucel (hydroxypropylcellulose) (HPC)
[7] = dose: 200.0 mg/kg/injection, schedule: Q01DX009 (ip), vehicle: Klucel (hydroxypropylcellulose) (HPC)
[8] = dose: 100.0 mg/kg/injection, schedule: Q04DX003 (ip), vehicle: water
[9] = dose: 200.0 mg/kg/injection, schedule: Q04DX003 (ip), vehicle: water
[10] = dose: 400.0 mg/kg/injection, schedule: Q01DX009 (ip), vehicle: Klucel (hydroxypropylcellulose) (HPC)
[11] = dose: 50.0 mg/kg/injection, schedule: Q01DX009 (ip), vehicle: saline
[12] = dose: 100.0 mg/kg/injection, schedule: Q01DX009 (ip), vehicle: saline
[13] = dose: 200.0 mg/kg/injection, schedule: Q01DX009 (ip), vehicle: saline
[14] = dose: 400.0 mg/kg/injection, schedule: Q01DX009 (ip), vehicle: saline
[15] = dose: 100.0 mg/kg/injection, schedule: Q04DX003 (ip), vehicle: saline
[16] = dose: 200.0 mg/kg/injection, schedule: Q04DX003 (ip), vehicle: saline
[17] = dose: 400.0 mg/kg/injection, schedule: Q04DX003 (ip), vehicle: saline
[18] = dose: 25.0 mg/kg/injection, schedule: Q01DX009 (ip), vehicle: saline with Tween-80
[19] = dose: 50.0 mg/kg/injection, schedule: Q01DX009 (ip), vehicle: saline with Tween-80

Measured: T/C

ClC1C(Cl)C2CC1C1OC21 (stereo unspecified)
inactive: dose: 50.0 mg/kg/injection, schedule: Q01DX009 (ip), vehicle: other 101 % of control | dose: 100.0 mg/kg/injection, schedule: Q01DX009 (ip), vehicle: other 100 % of control | dose: 200.0 mg/kg/injection, schedule: Q01DX009 (ip), vehicle: other 100 % of control

CCOC(=O)C1C(=O)NC(=O)CC1C (stereo unspecified)
inactive: [1] 99 % of control | [2] 96 % of control | dose: 200.0 mg/kg/injection, schedule: Q01DX009 (ip), vehicle: saline with Tween-80 101 % of control | [3] 99 % of control | dose: 400.0 mg/kg/injection, schedule: Q01DX009 (ip), vehicle: saline with Tween-80 105 % of control | [4] 107 % of control

COc1c2c(c3c(c1OC)c(=O)c1ccccc1n3C)OCO2
inactive: dose: 45.0 mg/kg/injection, schedule: Q01DX010 (ip), vehicle: carboxymethylcellulose (CMC) 90 % of control | dose: 90.0 mg/kg/injection, schedule: Q01DX010 (ip), vehicle: carboxymethylcellulose (CMC) 104 % of control | dose: 180.0 mg/kg/injection, schedule: Q01DX010 (ip), vehicle: carboxymethylcellulose (CMC) 95 % of control

O=C1NCC(COc2ccc(Cl)cc2)O1 (stereo unspecified)
inactive: [5] 108 % of control | [6] 105 % of control | [7] 105 % of control

N=C(N)c1ccc(C(=N)N)cc1
inactive: dose: 25.0 mg/kg/injection, schedule: Q01DX009 (ip), vehicle: water 100 % of control | dose: 50.0 mg/kg/injection, schedule: Q01DX009 (ip), vehicle: water 94 % of control | dose: 50.0 mg/kg/injection, schedule: Q04DX003 (ip), vehicle: water 95 % of control | dose: 100.0 mg/kg/injection, schedule: Q01DX009 (ip), vehicle: water 100 % of control | [8] 100 % of control | [9] 100 % of control

Cn1c(C(Cl)Cl)nc2ccccc2c1=O
inactive: dose: 12.5 mg/kg/injection, schedule: Q01DX009 (ip), vehicle: Klucel (hydroxypropylcellulose) (HPC) 100 % of control | dose: 25.0 mg/kg/injection, schedule: Q01DX009 (ip), vehicle: Klucel (hydroxypropylcellulose) (HPC) 100 % of control | [5] 95 % of control | dose: 75.0 mg/kg/injection, schedule: Q01DX009 (ip), vehicle: Klucel (hydroxypropylcellulose) (HPC) 100 % of control | dose: 115.0 mg/kg/injection, schedule: Q01DX009 (ip), vehicle: Klucel (hydroxypropylcellulose) (HPC) 114 % of control | dose: 170.0 mg/kg/injection, schedule: Q01DX009 (ip), vehicle: Klucel (hydroxypropylcellulose) (HPC) 95 % of control

CSc1ssc(=Nc2ccc(C)cc2)c1-c1ccccc1
inactive: dose: 100.0 mg/kg/injection, schedule: Q04DX003 (ip), vehicle: Klucel (hydroxypropylcellulose) (HPC) 105 % of control | [7] 90 % of control | dose: 200.0 mg/kg/injection, schedule: Q04DX003 (ip), vehicle: Klucel (hydroxypropylcellulose) (HPC) 100 % of control | [10] 95 % of control | dose: 400.0 mg/kg/injection, schedule: Q04DX003 (ip), vehicle: Klucel (hydroxypropylcellulose) (HPC) 95 % of control

CSc1nc(N)nc2c1ncn2C1CC(O)C(CO)O1 (stereo unspecified)
inactive: [11] 95 % of control | [12] 95 % of control and 101 % of control | [13] 100 % of control | [14] 97 % of control

Clc1ncnc2c1ncn2C1CCCO1 (stereo unspecified)
inactive: [15] 104 % of control | [16] 104 % of control

COC(=O)CC1C(=O)C(C)(C(=O)OC)CCC1c1ccc(OC)cc1 (stereo unspecified)
inactive: [15] 109 % of control | [16] 109 % of control | [17] 104 % of control

CC1(C)N=C(N)N=C(N)N1c1ccc(F)cc1
inactive: dose: 50.0 mg/kg/injection, schedule: Q01DX005 (ip), vehicle: Klucel (hydroxypropylcellulose) (HPC) 117 % of control

NS(=O)(=O)c1ccc(C(=O)NO)cc1
inactive: dose: 100.0 mg/kg/injection, schedule: Q01DX001 (ip), vehicle: saline 100 % of control | dose: 200.0 mg/kg/injection, schedule: Q01DX001 (ip), vehicle: saline 108 % of control | dose: 400.0 mg/kg/injection, schedule: Q01DX001 (ip), vehicle: saline 108 % of control

CCCCCCCCCCCCN1CCCC(C)C1 (stereo unspecified)
inactive: dose: 12.5 mg/kg/injection, schedule: Q01DX009 (ip), vehicle: saline with Tween-80 114 % of control | [18] 109 % of control | [19] 98 % of control and 120 % of control

O=C1NC(c2ccc3ccccc3n2)Nc2ccccc21 (stereo unspecified)
inactive: [6] 105 % of control | [7] 100 % of control | [10] 110 % of control

CC1=CC(=O)[C@@H](O)[C@]2(C)[C@H]3[C@@]4(O)OC[C@]35[C@H]([C@@H](C)[C@H]4O)[C@@H](OC(=O)c3ccccc3)C(=O)O[C@@H]5C[C@@H]12
inactive: dose: 0.03 mg/kg/injection, schedule: Q01DX009 (ip), vehicle: saline with Tween-80 121 % of control | dose: 0.06 mg/kg/injection, schedule: Q01DX009 (ip), vehicle: saline with Tween-80 118 % of control | dose: 0.12 mg/kg/injection, schedule: Q01DX009 (ip), vehicle: saline with Tween-80 122 % of control

C(#CCN1CCCC1)CCCN1CCCC1
inactive: [18] 111 % of control | [19] 92 % of control | dose: 50.0 mg/kg/injection, schedule: Q04DX003 (ip), vehicle: saline with Tween-80 91 % of control | [1] 92 % of control | [2] 91 % of control

O=C(NC(Cl)=C(Cl)Cl)P(=O)(c1ccccc1)c1ccccc1
inactive: dose: 50.0 mg/kg/injection, schedule: Q01DX005 (ip), vehicle: saline with Tween-80 92 % of control | dose: 100.0 mg/kg/injection, schedule: Q01DX005 (ip), vehicle: saline with Tween-80 111 % of control | dose: 200.0 mg/kg/injection, schedule: Q01DX005 (ip), vehicle: saline with Tween-80 95 % of control

CCCN(Cc1ccc(CN(CCC)C(=O)C(Cl)Cl)cc1)C(=O)C(Cl)Cl
inactive: [2] 93 % of control | [3] 95 % of control | [4] 88 % of control

CCOC(=O)c1c[nH]c2ccc(OC)cc2c1=O
inactive: dose: 25.0 mg/kg/injection, schedule: Q01DX009 (ip), vehicle: saline 111 % of control | [11] 104 % of control | [12] 117 % of control | [15] 107 % of control | [13] 113 % of control | [16] 98 % of control | [14] 109 % of control | [17] 100 % of control

CC(=O)N1C=Cn2c(cnc2C)C1O (stereo unspecified)
inactive: [8] 96 % of control | [9] 91 % of control | dose: 400.0 mg/kg/injection, schedule: Q04DX003 (ip), vehicle: water 99 % of control
